Article PMC11445189 (Frontiers in Toxicology, 2024)
Marks after values point to notes of the source that are not given here.

Key:
[1] = test system: zebrafish embryos; assay: Single toxicity test for zebrafish embryos (ECx); format: in vivo; conditions: for EC50: Danio rerio, 144 h, read-out: EC50 (95% CI); for EC50 / EC5 (95% CI) / EC15 (95% CI) / EC25 (95% CI): embryonic toxicity (lethality + abnormality), embryo-larva stage, 6 days exposure, probit; for toxicity to zebrafish embryos, individually: at high concentrations, 500 and 1,000 μg/mL
Experimental: (§1) Zebrafish embryos were obtained from adult zebrafish continuously sub-cultured in Korea Institute Toxicology Laboratory, Republic of Korea and were maintained at 26°C ± 1°C in a climate chamber (16 h daylight: 8 h darkness) until use for toxicity tests ([Park et al., 2022]). […] At 6 days after exposure, embryonic toxicity (%) was scored as follows: [embryonic toxicity (%) = lethality (dead embryo + dead larva) + abnormality (unhatched eggs + abnormal larva)/initial embryos × 100]. Developmental abnormality of zebrafish was investigated based on apical phenotypic observation, such as coagulated embryos, lack of somite formation, non-detachment of the tail, and lack of heartbeat for 6 days after exposure ([OECD, 2013]). Embryonic toxicity (%) was used for estimating the effective concentration values (ECx) for each chemical and 95% confidence limits, by concentration-response curves (CETIS program version 1.8.7.15, Tidepool Scientific Software, United States) ([Park et al., 2022]).

[2] = test system: zebrafish embryos; assay: Realistic mixture toxicity test, embryonic toxicity; format: in vivo; conditions: single chemical 10 ng/mL, 6 days after exposure
Experimental: as §1
To verify the developmental effects in zebrafish embryos caused by exposure to realistic mixtures, mixture toxicity tests with zebrafish embryos were performed at a range of environmentally relevant concentrations, and three exposure concentrations at a 1:1 mixing ratio (i.e., 1, 10, and 100 ng/mL of each chemical). […]

[3] = test system: cyp1a1; assay: qRT-PCR transcriptional alteration in zebrafish embryos; format: in vivo; conditions: single chemical 10 ng/mL, 6 days, normalized to β-actin
Experimental: (§2) To verify the developmental effects in zebrafish embryos caused by exposure to realistic mixtures, mixture toxicity tests with zebrafish embryos were performed at a range of environmentally relevant concentrations, and three exposure concentrations at a 1:1 mixing ratio (i.e., 1, 10, and 100 ng/mL of each chemical). […] Realistic mixture toxicity tests using zebrafish embryos were performed under the same conditions as the single-toxicity tests.
(§3) To examine the transcriptional alteration of target genes linked to zebrafish embryonic development, The total RNA from 20 zebrafish embryos was extracted using a RNeasy Mini kit (Qiagen, Hilden, Germany), following the manufacturer’s instructions. The total RNA concentration was measured spectrophoto-metrically at 260/280 nm using a Gen5™ spectrophotometer (BioTek®, Winooski, VT, United States). […]
(§4) The primer sequences for target genes were designed to use for quantitative real-time polymerase chain reaction (qRT–PCR): namely aryl hydrocarbon receptor 2 (ahr2), cytochrome P450 monooxygenases (i.e., cyp1a1 and cyp1b1), nuclear factor erythroid 2-related factors (i.e., nrf1a and nrf2a), tumor suppressor gene (p53), thyroid stimulating hormone beta subunit (tsh-β), and thyroid hormone receptors (i.e., thraa and thrb) (Supplementary Table S1) ([Fan et al., 2018]; [Liu et al., 2011]; [Ren et al., 2020]; [Williams et al., 2013]). […]

[4] = test system: cyp1b1; assay: as above; format: in vivo; conditions: single chemical 10 ng/mL, 6 days, normalized to β-actin
Experimental: as §2, §3, §4

[5] = test system: sheepshead minnow; conditions: acute toxicity, ref Gibbons et al., 2015; cited from earlier work
[6] = ref Mason et al., 2013, cited from earlier work

For `CN/C(=N\[N+](=O)[O-])NCc1cnc(Cl)s1` [CLO, Clothianidin], the EC50 [1] was 411 µg/mL, the “toxicity to zebrafish embryos, individually” value [1] was “toxic” and the “EC5 (95% CI)” value [1] was 65.28 (N.C.–104.61) µg/mL. For the same compound, the “EC15 (95% CI)” value [1] was 255.72 (224.61–289.12) µg/mL, the “EC25 (95% CI)” value [1] was 292.89 (247.77–332.07) µg/mL and the “Embryonic toxicity (%)” value [2] was 12.5 ± 3.4%. For the same compound, the “Relative fold change of gene expression, cyp1a1” value [3] was 0.38±0.06^a, the “Relative fold change of gene expression, cyp1b1” value [4] was 1.36±0.34^a and the “50% lethal concentration (LC50)” value [5] was 161 µg/mL. For the same compound, the half-life in sediment ([6]; sediment) was 56 days and the half-life in soil ([6]; soil) was “up to 1,386 days”.

With `O=[N+]([O-])NC1=NCCN1Cc1ccc(Cl)nc1` [IMD, imidacloprid] the EC50 [1] was 268 µg/mL, the “toxicity to zebrafish embryos, individually” value [1] was “toxic” and the “EC5 (95% CI)” value [1] was 60.80 (N.C.–108.36) µg/mL. The “EC15 (95% CI)” value [1] was 145.69 (113.89–158.99) µg/mL, the “EC25 (95% CI)” value [1] was 175.04 (146.25–196.54) µg/mL and the “Embryonic toxicity (%)” value [2] was 12.5 ± 2.8%. For the same compound, the “50% lethal concentration (LC50)” value [5] was 93.6 µg/mL.
